Measured values taken from ChEMBL document CHEMBL6127029, “Glutathione-dependent degradation of SMARCA2/4 for targeted lung cancer therapy with improved selectivity” (Eur J Med Chem, 2024).
Calls of active or inactive are those of the source. The calls are words filed in the database; no cut-off is given here.

Experiments:
[1] = target: T1, von Hippel-Lindau disease tumor suppressor/SWI/SNF-related matrix-associated actin-dependent regulator of chromatin subfamily A member 4 (Homo sapiens) (UniProt P51532+P40337); assay: PROTAC activity at VHL/SMARCA4 in human HEK-293T cells assessed as induction of SMARCA4 degradation at 1 uM incubated for 24 hrs by Western blotting analysis relative to control; type: cell-based
T1 sequence (P40337 whole entry, looked up): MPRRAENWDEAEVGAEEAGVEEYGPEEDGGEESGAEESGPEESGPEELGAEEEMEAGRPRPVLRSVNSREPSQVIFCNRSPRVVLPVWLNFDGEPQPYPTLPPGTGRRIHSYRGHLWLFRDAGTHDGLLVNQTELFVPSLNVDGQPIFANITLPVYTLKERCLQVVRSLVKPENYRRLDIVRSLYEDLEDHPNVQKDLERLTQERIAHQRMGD
T1 sequence (P51532 whole entry, looked up): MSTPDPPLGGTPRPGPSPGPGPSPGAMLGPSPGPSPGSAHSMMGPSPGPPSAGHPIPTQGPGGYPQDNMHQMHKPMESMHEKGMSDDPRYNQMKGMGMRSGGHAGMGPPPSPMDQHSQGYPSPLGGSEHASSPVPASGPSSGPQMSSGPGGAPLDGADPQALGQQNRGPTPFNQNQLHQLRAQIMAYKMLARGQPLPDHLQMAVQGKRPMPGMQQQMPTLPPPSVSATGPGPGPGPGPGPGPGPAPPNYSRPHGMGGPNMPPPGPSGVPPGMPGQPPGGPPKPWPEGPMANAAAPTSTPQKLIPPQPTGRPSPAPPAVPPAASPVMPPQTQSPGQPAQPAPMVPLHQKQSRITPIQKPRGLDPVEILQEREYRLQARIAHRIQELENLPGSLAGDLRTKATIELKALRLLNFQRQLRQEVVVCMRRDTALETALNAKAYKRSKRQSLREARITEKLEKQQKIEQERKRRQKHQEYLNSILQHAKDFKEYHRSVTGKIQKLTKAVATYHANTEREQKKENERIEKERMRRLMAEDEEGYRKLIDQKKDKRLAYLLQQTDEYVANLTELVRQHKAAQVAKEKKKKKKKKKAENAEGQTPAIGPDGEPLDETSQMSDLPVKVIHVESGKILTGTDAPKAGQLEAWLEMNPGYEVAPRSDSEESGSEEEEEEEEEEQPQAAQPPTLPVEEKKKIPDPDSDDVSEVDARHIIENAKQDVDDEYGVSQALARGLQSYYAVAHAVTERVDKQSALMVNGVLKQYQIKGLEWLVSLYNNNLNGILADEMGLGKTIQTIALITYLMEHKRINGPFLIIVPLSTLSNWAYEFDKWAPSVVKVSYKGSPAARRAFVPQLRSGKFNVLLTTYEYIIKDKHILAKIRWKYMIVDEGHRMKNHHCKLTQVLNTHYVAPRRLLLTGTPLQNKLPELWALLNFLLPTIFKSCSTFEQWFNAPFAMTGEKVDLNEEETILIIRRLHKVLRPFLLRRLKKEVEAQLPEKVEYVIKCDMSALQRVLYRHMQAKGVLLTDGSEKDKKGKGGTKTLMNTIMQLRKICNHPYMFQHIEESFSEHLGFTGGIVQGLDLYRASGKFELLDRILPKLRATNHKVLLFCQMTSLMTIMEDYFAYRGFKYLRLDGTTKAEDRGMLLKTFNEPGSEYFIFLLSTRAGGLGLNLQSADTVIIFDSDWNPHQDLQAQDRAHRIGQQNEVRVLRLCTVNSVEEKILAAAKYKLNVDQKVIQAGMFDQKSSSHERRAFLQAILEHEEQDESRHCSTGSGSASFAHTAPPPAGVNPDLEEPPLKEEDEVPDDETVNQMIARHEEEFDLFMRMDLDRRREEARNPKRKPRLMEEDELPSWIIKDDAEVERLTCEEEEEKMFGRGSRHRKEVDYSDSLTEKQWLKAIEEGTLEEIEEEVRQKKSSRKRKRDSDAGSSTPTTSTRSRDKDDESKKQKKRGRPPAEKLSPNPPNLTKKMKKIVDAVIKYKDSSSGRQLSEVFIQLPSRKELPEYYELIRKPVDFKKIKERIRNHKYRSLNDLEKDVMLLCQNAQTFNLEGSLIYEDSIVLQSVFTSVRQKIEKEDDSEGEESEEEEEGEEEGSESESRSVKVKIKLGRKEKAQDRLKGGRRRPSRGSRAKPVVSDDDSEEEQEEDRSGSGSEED

[2] = target: T2, von Hippel-Lindau disease tumor suppressor/SWI/SNF-related matrix-associated actin-dependent regulator of chromatin subfamily A member 2 (Homo sapiens) (UniProt P51531+P40337); assay: PROTAC activity at VHL/SMARCA2 in human A549 cells assessed as induction of SMARCA2 degradation at 1 uM pretreated with MG132 followed by compound addition and measured after 8 hrs by Western blotting analysis; type: cell-based
T2 sequence (P40337 whole entry, looked up): as the sequence (P40337 whole entry, looked up) above
T2 sequence (P51531 whole entry, looked up): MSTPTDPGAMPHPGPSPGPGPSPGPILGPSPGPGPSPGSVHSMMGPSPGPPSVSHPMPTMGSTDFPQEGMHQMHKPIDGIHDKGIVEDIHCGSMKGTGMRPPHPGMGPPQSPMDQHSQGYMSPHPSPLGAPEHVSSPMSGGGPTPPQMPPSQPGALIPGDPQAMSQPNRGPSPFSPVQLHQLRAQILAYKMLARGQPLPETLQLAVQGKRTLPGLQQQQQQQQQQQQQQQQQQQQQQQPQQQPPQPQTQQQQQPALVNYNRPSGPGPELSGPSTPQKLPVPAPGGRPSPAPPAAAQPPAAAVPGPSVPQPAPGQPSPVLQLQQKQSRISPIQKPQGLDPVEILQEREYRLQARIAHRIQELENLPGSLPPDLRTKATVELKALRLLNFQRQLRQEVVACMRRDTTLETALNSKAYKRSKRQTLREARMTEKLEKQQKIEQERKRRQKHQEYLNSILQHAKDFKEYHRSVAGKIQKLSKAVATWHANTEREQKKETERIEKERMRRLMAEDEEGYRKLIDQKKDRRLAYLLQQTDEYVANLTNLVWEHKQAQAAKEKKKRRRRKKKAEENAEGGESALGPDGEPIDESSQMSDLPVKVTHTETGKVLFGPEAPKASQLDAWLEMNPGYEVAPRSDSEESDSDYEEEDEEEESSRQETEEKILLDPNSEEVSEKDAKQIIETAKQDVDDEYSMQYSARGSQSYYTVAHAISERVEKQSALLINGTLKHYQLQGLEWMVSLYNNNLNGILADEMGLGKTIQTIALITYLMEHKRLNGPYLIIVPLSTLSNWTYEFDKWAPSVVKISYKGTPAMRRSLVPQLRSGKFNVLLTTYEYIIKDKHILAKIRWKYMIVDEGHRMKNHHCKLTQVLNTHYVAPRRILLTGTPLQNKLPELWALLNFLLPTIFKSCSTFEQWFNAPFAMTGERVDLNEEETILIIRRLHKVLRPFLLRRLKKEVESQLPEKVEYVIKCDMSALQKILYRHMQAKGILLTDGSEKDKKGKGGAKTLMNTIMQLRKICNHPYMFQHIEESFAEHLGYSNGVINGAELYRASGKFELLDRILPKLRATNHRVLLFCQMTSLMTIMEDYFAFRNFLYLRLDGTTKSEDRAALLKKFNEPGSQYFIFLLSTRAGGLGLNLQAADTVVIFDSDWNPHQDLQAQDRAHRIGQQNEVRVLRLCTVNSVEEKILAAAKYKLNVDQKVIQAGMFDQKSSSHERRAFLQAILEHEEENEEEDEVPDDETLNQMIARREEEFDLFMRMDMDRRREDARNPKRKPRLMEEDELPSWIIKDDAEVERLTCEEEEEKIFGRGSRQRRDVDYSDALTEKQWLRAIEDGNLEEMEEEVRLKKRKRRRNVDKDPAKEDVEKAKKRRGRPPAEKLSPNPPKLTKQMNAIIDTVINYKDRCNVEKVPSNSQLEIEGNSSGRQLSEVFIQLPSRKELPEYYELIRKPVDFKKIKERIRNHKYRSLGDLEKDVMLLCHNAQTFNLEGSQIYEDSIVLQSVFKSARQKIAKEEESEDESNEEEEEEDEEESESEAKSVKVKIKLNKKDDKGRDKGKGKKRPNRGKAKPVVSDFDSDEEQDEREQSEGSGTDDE

[3] = target: T2, von Hippel-Lindau disease tumor suppressor/SWI/SNF-related matrix-associated actin-dependent regulator of chromatin subfamily A member 2 (Homo sapiens); assay: PROTAC activity at VHL/SMARCA2 in human HuLEC-5a cells assessed as induction of SMARCA2 degradation at 1 uM by Western blotting analysis; type: cell-based; details: TDE = time-dependent effect
[4] = target: T2, von Hippel-Lindau disease tumor suppressor/SWI/SNF-related matrix-associated actin-dependent regulator of chromatin subfamily A member 2 (Homo sapiens); assay: PROTAC activity at VHL/SMARCA2 in human A549 cells assessed as induction of SMARCA2 degradation at 1 uM by Western blotting analysis; type: cell-based; details: TDE = time-dependent effect
[5] = target: T2, von Hippel-Lindau disease tumor suppressor/SWI/SNF-related matrix-associated actin-dependent regulator of chromatin subfamily A member 2 (Homo sapiens); assay: PROTAC activity at VHL/SMARCA2 in human HEK-293T cells assessed as induction of SMARCA2 degradation at 1 uM by Western blotting analysis; type: cell-based; details: TDE = time-dependent effect
[6] = target: T2, von Hippel-Lindau disease tumor suppressor/SWI/SNF-related matrix-associated actin-dependent regulator of chromatin subfamily A member 2 (Homo sapiens); assay: PROTAC activity at VHL/SMARCA2 in human HEK-293T cells assessed as induction of SMARCA2 degradation at 1 uM incubated for 24 hrs by Western blotting analysis relative to control; type: cell-based
[7] = target: T1, von Hippel-Lindau disease tumor suppressor/SWI/SNF-related matrix-associated actin-dependent regulator of chromatin subfamily A member 4 (Homo sapiens); assay: PROTAC activity at VHL/SMARCA4 in human 786-0 cells harboring mutated VHL assessed as induction of SMARCA4 degradation at 0.1 to 5 uM incubated for 8 hrs by Western blotting analysis; type: cell-based; details: dose 0.1-5 µM
[8] = target: T2, von Hippel-Lindau disease tumor suppressor/SWI/SNF-related matrix-associated actin-dependent regulator of chromatin subfamily A member 2 (Homo sapiens); assay: PROTAC activity at VHL/SMARCA2 in human NCI-H1299 cells assessed as induction of SMARCA2 degradation at 1 uM by Western blotting analysis; type: cell-based; details: TDE = time-dependent effect
HuLEC-5a = assay: Inhibition of cell migration in human HuLEC-5a cells at 10 uM incubated for 36 hrs by scratch wound healing based fluorescent microscopic analysis; type: functional
[9] = target: T1, von Hippel-Lindau disease tumor suppressor/SWI/SNF-related matrix-associated actin-dependent regulator of chromatin subfamily A member 4 (Homo sapiens); assay: PROTAC activity at VHL/SMARCA4 in human HuLEC-5a cells assessed as induction of SMARCA4 degradation at 1 uM by Western blotting analysis; type: cell-based; details: TDE = time-dependent effect
NCI-H1299 = assay: Cytotoxicity against human NCI-H1299 cells assessed as inhibition of cell growth incubated for 3 days by MTT assay; type: functional, cell-based; details: NCI-H1299, 72 h
[10] = target: T2, von Hippel-Lindau disease tumor suppressor/SWI/SNF-related matrix-associated actin-dependent regulator of chromatin subfamily A member 2 (Homo sapiens); assay: PROTAC activity at VHL/SMARCA2 in human A549 cells assessed as induction of SMARCA2 degradation at 1 uM incubated for 24 hrs by Western blotting analysis; type: cell-based
[11] = target: T2, von Hippel-Lindau disease tumor suppressor/SWI/SNF-related matrix-associated actin-dependent regulator of chromatin subfamily A member 2 (Homo sapiens); assay: PROTAC activity at VHL/SMARCA2 in human A549 cells assessed as induction of SMARCA2 degradation at 1 uM pretreated with MLN4924 followed by compound addition and measured after 8 hrs by Western blotting analysis; type: cell-based
[12] = target: T2, von Hippel-Lindau disease tumor suppressor/SWI/SNF-related matrix-associated actin-dependent regulator of chromatin subfamily A member 2 (Homo sapiens); assay: PROTAC activity at VHL/SMARCA2 in human 786-0 cells harboring mutated VHL assessed as induction of SMARCA2 degradation at 0.1 to 5 uM incubated for 8 hrs by Western blotting analysis; type: cell-based; details: dose 0.1-5 µM
[13] = target: T2, von Hippel-Lindau disease tumor suppressor/SWI/SNF-related matrix-associated actin-dependent regulator of chromatin subfamily A member 2 (Homo sapiens); assay: PROTAC activity at VHL/SMARCA2 in human NCI-H1299 cells harboring shRNA mediated VHL knockdown assessed as induction of SMARCA2 degradation at 0.1 to 2 uM incubated for 8 hrs by Western blotting analysis; type: cell-based; details: dose 0.1-2 µM
A549 [14] = assay: Inhibition of cell migration in human A549 cells at 10 uM incubated for 36 hrs by scratch wound healing based fluorescent microscopic analysis; type: functional
[15] = target: T1, von Hippel-Lindau disease tumor suppressor/SWI/SNF-related matrix-associated actin-dependent regulator of chromatin subfamily A member 4 (Homo sapiens); assay: PROTAC activity at VHL/SMARCA4 in human HEK-293T cells assessed as induction of SMARCA4 degradation at 1 uM by Western blotting analysis; type: cell-based; details: TDE = time-dependent effect
[16] = Cytotoxicity against human HuLEC-5a cells assessed as inhibition of cell growth incubated for 3 days by MTT assay; type: toxicity, cell-based
[17] = target: T2, von Hippel-Lindau disease tumor suppressor/SWI/SNF-related matrix-associated actin-dependent regulator of chromatin subfamily A member 2 (Homo sapiens); assay: PROTAC activity at VHL/SMARCA2 in human A549 cells harboring shRNA mediated VHL knockdown assessed as induction of SMARCA2 degradation at 0.1 to 2 uM incubated for 8 hrs by Western blotting analysis; type: cell-based; details: dose 0.1-2 µM
A549 [18] = assay: Cytotoxicity against human A549 cells assessed as inhibition of cell growth incubated for 3 days by MTT assay; type: functional, cell-based; details: A549, 72 h
A549 [19] = assay: Reduction in intracellular GSH level in human A549 cells by measuring decrease in fluorescence signal at 10 uM incubated for 10 mins in presence of GSH scavenger NEM by fluorescence microscopic analysis; type: functional, cell-based

Q: Which Activity [1] does the source give for Cc1ncsc1-c1ccc(CNC(=O)[C@@H]2C[C@@H](O)CN2C(=O)[C@@H](NC(=O)CN2CCN(c3cc(-c4ccccc4O)nnc3N)CC2)C(C)(C)C)cc1 here?
A: Its Activity is < 10%.

Q: And the Activity [2]?
A: The Activity was “inactive”.

Q: And the Activity [3]?
A: The Activity was “Tde”.

Q: And the Activity [4]?
A: The Activity was “Tde”.

Q: What about the Activity [5] of the same molecule?
A: Its Activity is “Tde”.

Q: What about the Activity [6] of the same molecule?
A: Its Activity is < 10%.

Q: What about the Activity [7] of the same molecule?
A: Its Activity is “inactive”.

Q: And the Activity [8]?
A: The Activity was “Tde”.

Q: And the inhibition (HuLEC-5a)?
A: Its inhibition is “inactive”.

Q: And the Activity [9]?
A: The Activity was “Tde”.

Q: What about the IC50 (NCI-H1299) of the same molecule?
A: Its IC50 is 1.4 µM.

Q: What about the Activity [10] of the same molecule?
A: The Activity was “Active”.

Q: And the Activity [11]?
A: Its Activity is “inactive”.

Q: And the Activity [12]?
A: The Activity was “inactive”.

Q: And the Activity [13]?
A: Its Activity is “inactive”.

Q: And the inhibition (A549 [14])?
A: Its inhibition is “Active”.

Q: What about the Activity [15] of the same molecule?
A: Its Activity is “Tde”.

Q: And the IC50 at 3 days [16]?
A: Its IC50 at 3 days is 24.5 µM.

Q: And the Activity [17]?
A: Its Activity is “inactive”.

Q: And the IC50 (A549 [18])?
A: The IC50 was 1.3 µM.

Q: For CCN(CCN1C(=O)C=CC1=O)c1ccc2c(C)cc(=O)oc2c1, which Activity (A549 [19]) is on record?
A: Its Activity is “Active”.
